Some results are limits rather than exact numbers.

Consider 52 compounds from patent US20260184692A1, “HETEROCYCLIC COMPOUNDS, PREPARATION METHODS AND USES THEREOF” (InventisBio Co., Ltd., priority 2022, published 2026).

The assay relates to OVCAR3 Cells. The experiment in a line: OVCAR3 Cell Viability Assay (CellTiter-Glo). The assay is classed as cell-based. Particulars: Homo sapiens, OVCAR-3, 144 h, 6 days incubation, read-out: OVCAR3 CTG IC50. Here is the method: OVCAR3 Cells (ATCC, Cat #HTB-161) were seeded at a density of 2000 cells/well in a 96-well clear bottom plate (Greiner, Cat #655098) in 100 μL of complete media (RPMI1640+20% FBS+0.01 mg/mL human insulin). One hundred microliter of complete media was added into the blank well (column 1) for low control. Cells were allowed to adhere to the plate overnight in the incubator at 37° C., 5% CO2. On the following day, 0.5 μL of serially-diluted compounds were added to the cells (columns 2-10) and incubated for 6 days at 37 C, 5% CO2 (final 0.5% DMSO concentration); 0.5 μL of DMSO solution was added into the wells (column 11) for high control. Cell viability was detected according to the CellTiter-Glo Luminescent Cell Viability Assay Kit (Promega, Cat #G7573). Luminescence was recorded on the Tecan Spark plate reader. Inhibition rate (IR) of the tested compounds was determined by the following formula: IR (%)=(1−(RLUcompound−RLUlow control)/(RLUhigh control−RLUlow control))×100%. The IC50 value was calculated using the non-linear regression equation: Y=Bottom+(Top−Bottom)/(1+10^((Log IC50−X)×HillSlope)), where X is Log of compound concentration, Y is percent inhibition (IR (%)), Top and Bottom are plateaus in same units as Y.
For orientation: In ATP-based viability assays light output follows the ATP content of the culture.
By IC50 is commonly meant the concentration that gives 50% inhibition. In the case of `N#Cc1ccc(N2CC3(CCC4(CC4)CC3)c3cc(NS(=O)(=O)CCO)ccc3C2=O)nc1S(=O)(=O)C1CCCC1` [Compound 100], the IC50 was less than 200 nM.

`CC1(F)CCC2(CC1)CN(c1ccnc(N3CCC(F)(F)CC3)n1)C(=O)c1ccc(NS(=O)(=O)CCO)cc12` (stereo not shown) [Compound 103]: the IC50 fell in the range of 200 to 2000 nM.

Regarding `N#Cc1ccc(N2CC3(CCC(F)(F)CC3)c3cc(NS(=O)(=O)CCO)ccc3C2=O)nc1NC1CC(F)(F)C1` [Compound 104], the IC50 is less than 200 nM.

As to `CC1(F)CCC2(CC1)CN(c1ccc(C#N)c(N3CCC(F)(F)CC3)n1)C(=O)c1ccc(NS(=O)(=O)CCO)cc12` (stereo not shown) [Compound 105], the IC50 was less than 200 nM.

With `O=C1c2cnc(NS(=O)(=O)CCO)cc2C2(CCC3(CC3)CC2)CN1c1ccc(F)c(N2CCC(F)(F)CC2)n1` [Compound 107], the IC50 was less than 200 nM.

As to `CC1(F)CCC2(CC1)CN(c1ccc(C#N)c(NC3CC(F)(F)C3)n1)C(=O)c1ccc(NS(=O)(=O)CCO)cc12` (stereo not shown) [Compound 111], the IC50 is 200 to 2000 nM.

On to `CC1(F)CCC2(CC1)CN(c1ccnc(NC3CC(F)(F)C3)n1)C(=O)c1ccc(NS(=O)(=O)CCO)cc12` (stereo not shown) [Compound 112], for which the 50% inhibitory concentration (IC50) lay within 200 to 2000 nM.

Take `CC(C)(C)NS(=O)(=O)c1cccc(N2CC3(CCC4(CC4)CC3)c3cc(NS(=O)(=O)CCO)ccc3C2=O)c1` [Compound 113]: the IC50 was less than 200 nM.

On to `N#Cc1ccc(N2CC3(CCC4(CCC4)CC3)c3cc(NS(=O)(=O)CCO)ccc3C2=O)nc1NC1CC(F)(F)C1` [Compound 115], for which the half-inhibitory concentration (IC50) was less than 200 nM.

On to `CCS(=O)(=O)Nc1ccc2c(c1)C1(CCC3(CC3)CC1)CN(c1ccc(C#N)c(S(=O)(=O)N3CC(F)(F)C3)c1)C2=O` [Compound 118], for which the IC50 was less than 200 nM.

Consider `CC(C)(C)NS(=O)(=O)c1cc(N2CC3(CCC4(CC4)CC3)c3cc(NS(=O)(=O)CCO)ccc3C2=O)ccc1C#N` [Compound 119], for which the half-maximal inhibitory concentration (IC50) was less than 200 nM.

`CC1(C)CCC2(CC1)CN(c1ccc(C#N)c(NC3CC(F)(F)C3)n1)C(=O)c1cc(F)c(NS(=O)(=O)CCO)cc12` [Compound 121]: the half-maximal inhibitory concentration (IC50) is less than 200 nM.

Consider `N#Cc1ccc(N2CC3(CCC4(CC4)CC3)c3cc(NS(=O)(=O)CCO)ccc3C2=O)nc1C(=O)N1CCCC1` [Compound 122], for which the IC50 is 200 to 2000 nM.

For the compound `O=C1c2ccc(NS(=O)(=O)CCO)cc2C2(CCC3(CCC3)CC2)CN1c1ccnc(NC2CC(F)(F)C2)n1` [Compound 124], the half-maximal inhibitory concentration (IC50) was less than 200 nM.

For the compound `N#Cc1ccc(N2CC3(CCC(F)(F)CC3)c3cc(NS(=O)(=O)CCO)c(F)cc3C2=O)nc1N1CCC(F)(F)CC1` [Compound 126], the IC50 was less than 200 nM.

For `CC(C)[C@H](N)C(=O)OCCS(=O)(=O)Nc1ccc2c(c1)C1(CCC3(CC3)CC1)CN(c1ccc(C#N)c(N3CCC(F)(F)CC3)n1)C2=O` [Compound 132], the IC50 is less than 200 nM.

In the case of `COc1ccc(N2CC3(CCC4(CC4)CC3)c3cc(NS(=O)(=O)CCOC(=O)[C@@H](N)C(C)C)ccc3C2=O)nc1N1CCC(F)(F)CC1` [Compound 134], the half-maximal inhibitory concentration (IC50) was less than 200 nM.

Take `CC(C)[C@H](N)C(=O)OCCS(=O)(=O)Nc1ccc2c(c1)C1(CCC3(CC3)CC1)CN(c1ccnc(NC3CC(F)(F)C3)n1)C2=O` [Compound 135]: the IC50 is less than 200 nM.

As to `O=C1c2ccc(NS(=O)(=O)CCO)cc2C2(CCC3(CC3)CC2)CN1c1ccc(O)c(N2CCC(F)(F)CC2)n1` [Compound 137], the IC50 was less than 200 nM.

`NC(=O)c1ccc(N2CC3(CCC4(CC4)CC3)c3cc(NS(=O)(=O)CCO)ccc3C2=O)nc1N1CCC(F)(F)CC1` [Compound 139]: the 50% inhibitory concentration (IC50) was less than 200 nM.

As for `Cn1cc(-c2ccc(N3CC4(CCC5(CC5)CC4)c4cc(NS(=O)(=O)CCO)ccc4C3=O)nc2N2CCC(F)(F)CC2)cn1` [Compound 141], the IC50 is less than 200 nM.

With `Cn1ccc(-c2ccc(N3CC4(CCC5(CC5)CC4)c4cc(NS(=O)(=O)CCO)ccc4C3=O)nc2N2CCC(F)(F)CC2)n1` [Compound 142], the IC50 is less than 200 nM.

For `CCNC(=O)c1ccc(N2CC3(CCC4(CC4)CC3)c3cc(NS(=O)(=O)CCO)ccc3C2=O)nc1N1CCC(F)(F)CC1` [Compound 144], the IC50 is less than 200 nM.

Take `CCS(=O)(=O)Nc1ccc2c(c1)C1(CCC3(CC3)CC1)CN(c1ccnc(NC3CC(F)(F)C3)n1)C2=O` [Compound 145]: the IC50 was less than 200 nM.

On to `COc1ncc(N2CC3(CCC4(CC4)CC3)c3cc(NS(=O)(=O)CCO)ccc3C2=O)nc1N1CCC(F)(F)CC1` [Compound 146], for which the IC50 was less than 200 nM.

With `CN(C)CCS(=O)(=O)Nc1ccc2c(c1)C1(CCC3(CC3)CC1)CN(c1ccc(C#N)c(N3CCC(F)(F)CC3)n1)C2=O` [Compound 147], the IC50 was 200 to 2000 nM.

Turning to `COCCS(=O)(=O)Nc1ccc2c(c1)C1(CCC3(CC3)CC1)CN(c1ccnc(NC3CC(F)(F)C3)n1)C2=O` [Compound 148], the IC50 is 200 to 2000 nM.

As for `O=C1c2ccc(NS(=O)(=O)CCO)cc2C2(CCC3(CC3)CC2)CN1c1ccc(C(F)F)c(N2CCC(F)(F)CC2)n1` [Compound 149], the IC50 is less than 200 nM.

Turning to `CCc1ccc(N2CC3(CCC4(CC4)CC3)c3cc(NS(=O)(=O)CCO)ccc3C2=O)nc1N1CCC(F)(F)CC1` [Compound 150], the IC50 was less than 200 nM.

On to `O=C1c2ccc(NS(=O)(=O)CCO)cc2C2(CCC3(CC3)CC2)CN1c1ccc(C2CC2)c(N2CCC(F)(F)CC2)n1` [Compound 151], for which the IC50 was less than 200 nM.

As for `CN(C)c1ccc(N2CC3(CCC4(CC4)CC3)c3cc(NS(=O)(=O)CCO)ccc3C2=O)nc1N1CCC(F)(F)CC1` [Compound 152], the IC50 was less than 200 nM.

In the case of `COc1ccc(N2CC3(CCC4(CC4)CC3)c3cc(NS(=O)(=O)CCN(C)C)ccc3C2=O)nc1N1CCC(F)(F)CC1` [Compound 153], the IC50 is 200 to 2000 nM.

On to `O=C1c2ccc(NS(=O)(=O)CCO)cc2C2(CCC3(CC3)CC2)CN1c1ccc(C(F)(F)F)c(N2CCC(F)(F)CC2)n1` [Compound 154], for which the IC50 was less than 200 nM.

Consider `O=C1c2ccc(NS(=O)(=O)CCO)cc2C2(CCC3(CC3)CC2)CN1c1ccc(OC(F)F)c(N2CCC(F)(F)CC2)n1` [Compound 155], for which the IC50 was less than 200 nM.

`O=C1c2ccc(NS(=O)(=O)C(F)(F)F)cc2C2(CCC3(CC3)CC2)CN1c1ccnc(NC2CC(F)(F)C2)n1` [Compound 156]: the half-maximal inhibitory concentration (IC50) was more than 2000 nM.

Turning to `N#Cc1ncc(N2CC3(CCC4(CC4)CC3)c3cc(NS(=O)(=O)CCO)ccc3C2=O)nc1N1CCC(F)(F)CC1` [Compound 157], the IC50 was less than 200 nM.

For the compound `N#Cc1ccc(N2CC3(CCC4(CC4)CC3)c3cc(NS(=O)(=O)CC(F)(F)F)ccc3C2=O)nc1N1CCC(F)(F)CC1` [Compound 158], the IC50 is less than 200 nM.

With `N#Cc1ccc(N2CC3(CCC4(CC4)CC3)c3cc(NS(=O)(=O)C(F)(F)F)ccc3C2=O)nc1N1CCC(F)(F)CC1` [Compound 159], the IC50 was 200 to 2000 nM.

For the compound `Cc1ncc(-c2ccc(N3CC4(CCC5(CC5)CC4)c4cc(NS(=O)(=O)CCO)ccc4C3=O)nc2N2CCC(F)(F)CC2)cn1` [Compound 160], the IC50 is less than 200 nM.

Regarding `Cc1ccc(-c2ccc(N3CC4(CCC5(CC5)CC4)c4cc(NS(=O)(=O)CCO)ccc4C3=O)nc2N2CCC(F)(F)CC2)cn1` [Compound 161], the IC50 was less than 200 nM.

In the case of `CCNC(=O)c1ccc(N2CC3(CCC4(CC4)CC3)c3cc(NS(=O)(=O)CCO)ccc3C2=O)nc1NC1CC(F)(F)C1` [Compound 162], the 50% inhibitory concentration (IC50) is less than 200 nM.

As to `Cn1cc(-c2ccc(N3CC4(CCC5(CC5)CC4)c4cc(NS(=O)(=O)CCO)ccc4C3=O)nc2NC2CC(F)(F)C2)cn1` [Compound 163], the IC50 was less than 200 nM.

For the compound `Cc1cc(-c2ccc(N3CC4(CCC5(CC5)CC4)c4cc(NS(=O)(=O)CCO)ccc4C3=O)nc2N2CCC(F)(F)CC2)ccn1` [Compound 164], the IC50 is less than 200 nM.

With `NC(=O)c1ncc(N2CC3(CCC4(CC4)CC3)c3cc(NS(=O)(=O)CCO)ccc3C2=O)nc1N1CCC(F)(F)CC1` [Compound 165], the IC50 is less than 200 nM.

`O=C1c2ccc(NS(=O)(=O)CC(F)(F)F)cc2C2(CCC3(CC3)CC2)CN1c1ccnc(NC2CC(F)(F)C2)n1` [Compound 166]: the IC50 is more than 2000 nM.

Consider `NC(=O)c1ccc(N2CC3(CCC4(CC4)CC3)c3cc(NS(=O)(=O)CCO)ccc3C2=O)nc1NC1CC(F)(F)C1` [Compound 167], for which the IC50 is less than 200 nM.

On to `Cn1cnc(-c2ccc(N3CC4(CCC5(CC5)CC4)c4cc(NS(=O)(=O)CCO)ccc4C3=O)nc2NC2CC(F)(F)C2)c1` [Compound 169], for which the IC50 was less than 200 nM.

Consider `Cn1ccc(-c2ccc(N3CC4(CCC5(CC5)CC4)c4cc(NS(=O)(=O)CCO)ccc4C3=O)nc2NC2CC(F)(F)C2)n1` [Compound 170], for which the IC50 lay in the range of 200 to 2000 nM.

In the case of `CN1CCN(C(=O)c2ccc(N3CC4(CCC5(CC5)CC4)c4cc(NS(=O)(=O)CCO)ccc4C3=O)nc2N2CCC(F)(F)CC2)CC1` [Compound 172], the IC50 was in the range of 200 to 2000 nM.

For `Cc1nccc(-c2ccc(N3CC4(CCC5(CC5)CC4)c4cc(NS(=O)(=O)CCO)ccc4C3=O)nc2NC2CC(F)(F)C2)n1` [Compound 174], the IC50 is less than 200 nM.

On to `Cn1cnc(-c2ccc(N3CC4(CCC5(CC5)CC4)c4cc(NS(=O)(=O)CCO)ccc4C3=O)nc2N2CCC(F)(F)CC2)n1` [Compound 175], for which the IC50 is less than 200 nM.

With `CN1CC=C(c2ccc(N3CC4(CCC5(CC5)CC4)c4cc(NS(=O)(=O)CCO)ccc4C3=O)nc2N2CCC(F)(F)CC2)CC1` [Compound 176], the IC50 was in the range of 200 to 2000 nM.
